Source: patent US12653809B2, “Urea, amide, and substituted heteroaryl compounds for CBL-B inhibition” (Nurix Therapeutics, Inc., priority 2019, dated 2026)

The compounds below were run against T1, Cbl-b (truncated variant, UniProt number Q13191) (Homo sapiens, UniProt Q13191) (assay: Cbl-b activity assay (TR-FRET, interaction of Cbl-b with UbcH5B-Ub)). Conditions: Biological Example 1A; low or high conditions not stated; read-out: IC50 values in the Cbl-b inhibition assay of Biological Example 1A.
T1 construct: made in house
T1 sequence (Q13191 36-427): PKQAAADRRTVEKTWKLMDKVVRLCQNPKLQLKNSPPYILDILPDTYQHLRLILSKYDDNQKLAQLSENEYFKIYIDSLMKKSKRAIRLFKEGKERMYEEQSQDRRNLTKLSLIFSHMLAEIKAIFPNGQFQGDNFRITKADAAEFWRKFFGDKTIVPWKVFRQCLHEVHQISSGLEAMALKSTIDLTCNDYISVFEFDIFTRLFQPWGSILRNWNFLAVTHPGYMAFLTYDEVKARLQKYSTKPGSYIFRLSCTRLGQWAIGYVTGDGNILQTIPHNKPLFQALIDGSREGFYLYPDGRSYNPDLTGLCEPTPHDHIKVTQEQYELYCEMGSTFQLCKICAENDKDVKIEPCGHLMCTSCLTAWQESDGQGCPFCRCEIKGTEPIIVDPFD
Type: biochemical
`CC(Sc1nncn1C)c1cccc(-n2cc(-c3ccccc3)nn2)c1` (stereo not shown) [Example 167, 1-(3-(1-((4-methyl-4H-1,2,4-triazol-3-yl)thio)ethyl)phenyl)-4-phenyl-1H-1,2,3-triazole] was tested, and the IC50 was 1 to 5 µM. In the case of `CNC(=O)c1ccc(-c2cnn(-c3cccc([C@H](C)Sc4nncn4C)c3)n2)cc1` [Example 82, (S)—N-methyl-4-(2-(3-(1-(4-methyl-4H-1,2,4-triazol-3-ylthio)ethyl)phenyl)-2H-1,2,3-triazol-4-yl)benzamide], the IC50 is reported as 1 to 5 µM. In the case of `C[C@H](Sc1nncn1C)c1cccc(-n2ncc(-c3ccc(C(=O)O)cc3)n2)c1` [Example 80, (S)-4-(2-(3-(1-(4-methyl-4H-1,2,4-triazol-3-ylthio)ethyl)phenyl)-2H-1,2,3-triazol-4-yl)benzoic acid], the IC50 is reported as no less than 5 µM. `C[C@H](Cc1nncn1C)c1cccc(NC(=O)N2CCOc3cccnc32)c1` [Example 10, (R)—N-(3-(1-(4-methyl-4H-1,2,4-triazol-3-yl)propan-2-yl)phenyl)-2,3-dihydro-4H-pyrido[3,2-b][1,4]oxazine-4-carboxamide] gave an IC50 of less than 0.1 µM. With `C[C@H](Sc1nncn1C)c1cccc(-n2ncc(-c3ccc(C(N)=O)cc3)n2)c1` [Example 86, (S)-4-(2-(3-(1-(4-methyl-4H-1,2,4-triazol-3-ylthio)ethyl)phenyl)-2H-1,2,3-triazol-4-yl)benzamide] the IC50 was 1 to 5 µM. For `Cn1cnnc1CC1(c2cccc(C(=O)Nc3cccc(C4CC4)n3)c2)COC1` [Example 37, N-(6-cyclopropylpyridin-2-yl)-3-(3-((4-methyl-4H-1,2,4-triazol-3-yl)methyl)oxetan-3-yl)benzamide], the IC50 was no less than 5 µM.

Same assay, conditions: high conditions: 100 mM NaCl, 60 nM Src kinase; 12 nM Cbl-b; read-out: Cbl-b activity IC50
`C[C@H](Sc1nncn1C)c1cccc(NC(=O)N2CCO[C@H]([C@H]3CCCO3)C2)c1` [Example 135, (S)—N-(3-((S)-1-((4-methyl-4H-1,2,4-triazol-3-yl)thio)ethyl)phenyl)-2-((R)-tetrahydrofuran-2-yl)morpholine-4-carboxamide] was tested, and the IC50 was no less than 5 µM. `C[C@H](Cc1nncn1C)c1cccc(-c2n[nH]c3c(N4CC(O)C4)cc(C(F)(F)F)nc23)c1` [Example 110, (R)-1-(3-(3-(1-(4-methyl-4H-1,2,4-triazol-3-yl)propan-2-yl)phenyl)-5-(trifluoromethyl)-1H-pyrazolo[4,3-b]pyridin-7-yl)azetidin-3-ol] was tested, and the IC50 was 0.1 to 1 µM. Work on `C[C@H](Sc1nncn1C)c1cccc(NC(=O)N2Cc3nccnc3C2)c1` [Example 145, (S)—N-(3-(1-((4-methyl-4H-1,2,4-triazol-3-yl)thio)ethyl)phenyl)-5,7-dihydro-6H-pyrrolo[3,4-b]pyrazine-6-carboxamide] yielded an IC50 of no less than 5 µM. For `C[C@H](Sc1nncn1C)c1cccc(NC(=O)N2CC(C(=O)N3CCC(O)CC3)C2)c1` [Example 140, (S)-3-(4-hydroxypiperidine-1-carbonyl)-N-(3-(1-((4-methyl-4H-1,2,4-triazol-3-yl)thio)ethyl)phenyl)azetidine-1-carboxamide], the IC50 was no less than 5 µM. For `C[C@H](Sc1nncn1C)c1cccc(-n2cc(-c3cccc(Cl)c3)nn2)c1` [Example 79, 4-(3-chlorophenyl)-1-{3-[(1S)-1-[(4-methyl-4H-1,2,4-triazol-3-yl)sulfanyl]ethyl]phenyl}-1H-1,2,3-triazole], the IC50 was 1 to 5 µM. `C[C@H](Cc1nncn1C)c1cccc(-c2cc(-c3ccccn3)n[nH]2)c1` [Example 105, (R)-2-(5-(3-(1-(4-methyl-4H-1,2,4-triazol-3-yl)propan-2-yl)phenyl)-1H-pyrazol-3-yl)pyridine] showed an IC50 of 0.1 to 1 µM. In the case of `CC(Sc1nncn1C)c1cccc(-n2cc(-c3ccccc3)nn2)c1` (stereo not shown) [Example 167, 1-(3-(1-((4-methyl-4H-1,2,4-triazol-3-yl)thio)ethyl)phenyl)-4-phenyl-1H-1,2,3-triazole], the IC50 is reported as 1 to 5 µM. `C[C@H](Sc1nncn1C)c1cccc(NC(=O)Nc2ccc(CC(=O)N(C)C)cc2)c1` [Example 150, (S)—N,N-dimethyl-2-(4-(3-(3-(1-((4-methyl-4H-1,2,4-triazol-3-yl)thio)ethyl)phenyl)ureido)phenyl)acetamide] showed an IC50 of no less than 5 µM. Work on `C[C@H](Sc1nncn1C)c1cccc(NC(=O)N2CCCc3ccccc32)c1` [Example 8, (S)—N-(3-(1-((4-methyl-4H-1,2,4-triazol-3-yl)thio)ethyl)phenyl)-3,4-dihydroquinoline-1(2H)-carboxamide] yielded an IC50 of no less than 5 µM. `CNC(=O)c1ccc(-c2cnn(-c3cccc([C@H](C)Sc4nncn4C)c3)n2)cc1` [Example 82, (S)—N-methyl-4-(2-(3-(1-(4-methyl-4H-1,2,4-triazol-3-ylthio)ethyl)phenyl)-2H-1,2,3-triazol-4-yl)benzamide] gave an IC50 of 1 to 5 µM. Work on `C[C@H](Sc1nncn1C)c1cccc(-n2ncc(-c3ccc(C(=O)O)cc3)n2)c1` [Example 80, (S)-4-(2-(3-(1-(4-methyl-4H-1,2,4-triazol-3-ylthio)ethyl)phenyl)-2H-1,2,3-triazol-4-yl)benzoic acid] yielded an IC50 of no less than 5 µM. Compound `Cn1cnnc1CC1(c2cccc(NC(=O)N3CC4(CCNC4)Oc4cccnc43)c2)COC1` (stereo not shown) [Example 26, N-(3-(3-((4-methyl-4H-1,2,4-triazol-3-yl)methyl)oxetan-3-yl)phenyl)spiro[pyrido[3,2-b][1,4]oxazine-2,3′-pyrrolidine]-4(3H)-carboxamide] has an IC50 of less than 0.1 µM. For `C[C@H](Sc1nncn1C)c1cccc(NC(=O)N2CC(c3cnn(C)c3)C(C)(C)C2)c1` (stereo partly drawn) [Example 53, 3,3-dimethyl-4-(1-methyl-1H-pyrazol-4-yl)-N-(3-((S)-1-((4-methyl-4H-1,2,4-triazol-3-yl)thio)ethyl)phenyl)pyrrolidine-1-carboxamide], the IC50 was no less than 5 µM. With `C[C@H](Sc1nncn1C)c1cccc(NC(=O)N2CCOC3(CC3)C2)c1` [Example 48, (S)—N-(3-(1-((4-methyl-4H-1,2,4-triazol-3-yl)thio)ethyl)phenyl)-4-oxa-7-azaspiro[2.5]octane-7-carboxamide] the IC50 was no less than 5 µM. Work on `Cn1cnnc1C(F)(F)[C@](C)(F)c1cccc(NC(=O)N2CCOc3cccnc32)c1` [Example 24, (R)—N-(3-(1,1,2-trifluoro-1-(4-methyl-4H-1,2,4-triazol-3-yl)propan-2-yl)phenyl)-2,3-dihydro-4H-pyrido[3,2-b][1,4]oxazine-4-carboxamide] yielded an IC50 of 0.1 to 1 µM. `CC(CO)N(C)C(=O)Nc1cccc([C@H](C)Sc2nncn2C)c1` (stereo partly drawn) [Example 143, 1-(1-hydroxypropan-2-yl)-1-methyl-3-(3-((S)-1-((4-methyl-4H-1,2,4-triazol-3-yl)thio)ethyl)phenyl)urea] showed an IC50 of no less than 5 µM. Compound `COc1ccc(-c2cc(-c3cccc([C@H](C)Sc4nncn4C)c3)on2)cc1` [Example 59, (S)-3-(4-methoxyphenyl)-5-(3-(1-((4-methyl-4H-1,2,4-triazol-3-yl)thio)ethyl)phenyl)isoxazole] has an IC50 of 1 to 5 µM. In the case of `CC1CN(C(=O)Nc2cccc([C@H](C)Sc3nncn3C)c2)CC1CO` (stereo partly drawn) [Example 54, 3-(hydroxymethyl)-4-methyl-N-(3-((S)-1-((4-methyl-4H-1,2,4-triazol-3-yl)thio)ethyl)phenyl)pyrrolidine-1-carboxamide], the IC50 is reported as no less than 5 µM. With `COc1cccc(-c2cn(-c3cccc([C@H](C)Sc4nncn4C)c3)nn2)c1` [Example 77, (S)-4-(3-methoxyphenyl)-1-(3-(1-((4-methyl-4H-1,2,4-triazol-3-yl)thio)ethyl)phenyl)-1H-1,2,3-triazole] the IC50 was 1 to 5 µM. `C[C@H](Sc1nncn1C)c1cccc(NC(=O)N2CCC2c2ccccc2)c1` (stereo partly drawn) [Example 142, N-(3-((S)-1-((4-methyl-4H-1,2,4-triazol-3-yl)thio)ethyl)phenyl)-2-phenylazetidine-1-carboxamide] showed an IC50 of no less than 5 µM. For `CCN1CCc2nc(NC(=O)Nc3cccc([C@H](C)Sc4nncn4C)c3)sc2C1` [Example 137, (S)-1-(5-ethyl-4,5,6,7-tetrahydrothiazolo[5,4-c]pyridin-2-yl)-3-(3-(1-((4-methyl-4H-1,2,4-triazol-3-yl)thio)ethyl)phenyl)urea], the IC50 was no less than 5 µM. Work on `C[C@H](Sc1nncn1C)c1cccc(NC(=O)N2CC3(CCCO3)C2)c1` [Example 138, N-[3-[(1S)-1-[(4-methyl-4H-1,2,4-triazol-3-yl)sulfanyl]ethyl]phenyl]-5-oxa-2-azaspiro[3.4]octane-2-carboxamide] yielded an IC50 of no less than 5 µM. In the case of `C[C@H](Cc1nncn1C)c1cccc(NC(=O)N2CCOc3cccnc32)c1` [Example 10, (R)—N-(3-(1-(4-methyl-4H-1,2,4-triazol-3-yl)propan-2-yl)phenyl)-2,3-dihydro-4H-pyrido[3,2-b][1,4]oxazine-4-carboxamide], the IC50 is reported as less than 0.1 µM. Compound `C[C@H](Sc1nncn1C)c1cccc(NC(=O)N2CCC23CCN(C)CC3)c1` [Example 126, (S)-7-methyl-N-(3-(1-((4-methyl-4H-1,2,4-triazol-3-yl)thio)ethyl)phenyl)-1,7-diazaspiro[3.5]nonane-1-carboxamide] has an IC50 of no less than 5 µM. Work on `C[C@H](Sc1nncn1C)c1cccc(-n2ncc(-c3ccc(C(N)=O)cc3)n2)c1` [Example 86, (S)-4-(2-(3-(1-(4-methyl-4H-1,2,4-triazol-3-ylthio)ethyl)phenyl)-2H-1,2,3-triazol-4-yl)benzamide] yielded an IC50 of 1 to 5 µM. `C[C@H](Sc1nncn1C)c1cccc(NC(=O)N2CCOCC2CO)c1` (stereo partly drawn) [Example 146, 3-(hydroxymethyl)-N-(3-((S)-1-((4-methyl-4H-1,2,4-triazol-3-yl)thio)ethyl)phenyl)morpholine-4-carboxamide] gave an IC50 of no less than 5 µM. Compound `Cn1cnnc1CC1(c2cccc(C(=O)Nc3cccc(C4CC4)n3)c2)COC1` [Example 37, N-(6-cyclopropylpyridin-2-yl)-3-(3-((4-methyl-4H-1,2,4-triazol-3-yl)methyl)oxetan-3-yl)benzamide] has an IC50 of no less than 5 µM. In the case of `Cn1cnnc1CC1(c2cccc(NC(=O)N3CC4(CNC4)Oc4cccnc43)c2)COC1` [Example 27, N-(3-(3-((4-methyl-4H-1,2,4-triazol-3-yl)methyl)oxetan-3-yl)phenyl)spiro[azetidine-3,2′-pyrido[3,2-b][1,4]oxazine]-4′(3′H)-carboxamide], the IC50 is reported as less than 0.1 µM. Compound `CNS(=O)(=O)c1cc(NC(=O)Nc2cccc([C@H](C)Sc3nncn3C)c2)ccc1C` [Example 144, (S)—N,2-dimethyl-5-(3-(3-(1-((4-methyl-4H-1,2,4-triazol-3-yl)thio)ethyl)phenyl)ureido)benzenesulfonamide] has an IC50 of no less than 5 µM. `CC1CCN(C(=O)Nc2cccc([C@H](C)Sc3nncn3C)c2)C1` (stereo partly drawn) [Example 41, 3-methyl-N-(3-((S)-1-((4-methyl-4H-1,2,4-triazol-3-yl)thio)ethyl)phenyl)pyrrolidine-1-carboxamide] gave an IC50 of no less than 5 µM. `C[C@H](Sc1nncn1C)c1cccc(NC(=O)NC2CCCCC2)c1` [Example 161, (S)-1-cyclohexyl-3-(3-(1-((4-methyl-4H-1,2,4-triazol-3-yl)thio)ethyl)phenyl)urea] was tested, and the IC50 was no less than 5 µM. `C[C@H](Sc1nncn1C)c1cccc(-n2ncc(-c3cccc(Cl)c3)n2)c1` [Example 78, 4-(3-chlorophenyl)-2-[3-[(1S)-1-[(4-methyl-4H-1,2,4-triazol-3-yl)sulfanyl]ethyl]phenyl]-2H-1,2,3-triazole] gave an IC50 of 1 to 5 µM. With `C[C@H](Sc1nncn1C)c1cccc(NC(=O)N2CCOCC2)c1` [Example 128, N-[3-[(1S)-1-[(4-methyl-4H-1,2,4-triazol-3-yl)sulfanyl]ethyl]phenyl]morpholine-4-carboxamide] the IC50 was no less than 5 µM. Compound `COc1cccc(-c2cnn(-c3cccc([C@H](C)Sc4nncn4C)c3)n2)c1` [Example 76, (S)-4-(3-methoxyphenyl)-2-(3-(1-((4-methyl-4H-1,2,4-triazol-3-yl)thio)ethyl)phenyl)-2H-1,2,3-triazole] has an IC50 of 1 to 5 µM.
